Test system: human sense of taste
Assay: Sweetness measured by human sense of taste (20 trained subjects, minimum concentration at which sweetness is first sensed)
Type: in vivo
Settings: for Multiples of increased sweetness to minor-type brazzein: relative to minor-type brazzein; for Sweetness ratios of sucrose (1 g/100 ml) to brazzein multi-variants / Sweetness ratios of sucrose (1 g/100 ml) to primary brazzein variants (minor-type brazzein: 2000): relative to 1 g/100 ml sucrose threshold; for Minimum stimulation level in which one senses sweetness for first time: 20 trained subjects
Procedure: Since the recombinant brazzein according to the present invention is not a sucrose-based compound having a cyclic ring, the sweetness of the recombinant brazzein was not measured using a saccharometer. Therefore, the activity of the recombinant brazzein was measured using the human sense of taste. Sugar content measurement was performed on 20 subjects who were trained to feel substantially the same minimum concentration of sucrose in which they could sense sweetness using a sucrose solution. That is, a concentration of each brazzein variant in which the subjects could sense sweetness for the first time was measured. Also, a sweetness ratio of the sucrose solution to the wild-type brazzein was 1 g/100 ml, which was a minimum stimulation level in which the subjects could sense sweetness. Also, a sweetness ratio of the minor-type brazzein protein to the wild-type brazzein was 500 μg/100 ml, which was a minimum stimulation level in which the subjects could sense sweetness. Therefore, the sweetness was calculated using the sweetness ratios (That is, 1/0.0005=2000 for the minor-type brazzein).
Also, the brazzein multi-variants were measured for activity (sweetness) in the same manner as in Example 3-1.

Row | Substance | Multiples of increased sweetness to minor-type brazzein (brazzein multi-variants) | Sweetness ratios of sucrose (1 g/100 ml) to brazzein multi-variants | Multiples of increased sweetness to minor-type brazzein (primary brazzein variants) | Minimum stimulation level in which one senses sweetness for first time (primary brazzein variants) | Sweetness ratios of sucrose (1 g/100 ml) to primary brazzein variants (minor-type brazzein: 2000)
1 | E35D_E40R: secondary brazzein variant of minor-type brazzein with substitutions E35D and E40R (DKCKKVYENYPVSKCQLANQCNYDCKLRKHAKSGDCFYDRKRNLQCICDYCEY; Brazzein(E35D_E40R)) [Brazzein E35D_E40R] | 6 | 12,000 | – | – | –
2 | H30R_E40A: secondary brazzein variant of minor-type brazzein with substitutions H30R and E40A (DKCKKVYENYPVSKCQLANQCNYDCKLRKRAKSGECFYDAKRNLQCICDYCEY; Brazzein(H30R_E40A)) [Brazzein H30R_E40A] | 4 | 8,000 | – | – | –
3 | H30R_E40R: secondary brazzein variant of minor-type brazzein with substitutions H30R and E40R (DKCKKVYENYPVSKCQLANQCNYDCKLRKRAKSGECFYDRKRNLQCICDYCEY; Brazzein(H30R_E40R)) [Brazzein H30R_E40R] | 5 | 10,000 | – | – | –
4 | K29H: primary brazzein variant: Lys at position 29 of minor-type brazzein substituted with His (DKCKKVYENYPVSKCQLANQCNYDCKLRHHARSGECFYDEKRNLQCICDYCEY; Brazzein(K29H)) [Brazzein K29H] | – | – | 0.05 | 10,000 μg/100 ml | 100
5 | R42H: primary brazzein variant: Arg at position 42 of minor-type brazzein substituted with His (DKCKKVYENYPVSKCQLANQCNYDCKLRKHARSGECFYDEKHNLQCICDYCEY; Brazzein(R42H)) [Brazzein R42H] | – | – | 0.16 | 3,000 μg/100 ml | 334
6 | K29R: primary brazzein variant: Lys at position 29 of minor-type brazzein substituted with Arg (DKCKKVYENYPVSKCQLANQCNYDCKLRRHARSGECFYDEKRNLQCICDYCEY; Brazzein(K29R)) [Brazzein K29R] | – | – | 0.05 | 10,000 μg/100 ml | 100
7 | R32A: primary brazzein variant: Arg at position 32 of minor-type brazzein substituted with Ala (DKCKKVYENYPVSKCQLANQCNYDCKLRKHAASGECFYDEKRNLQCICDYCEY; Brazzein(R32A)) [Brazzein R32A] | – | – | 0.08 | 6,000 μg/100 ml | 167
8 | R32K: primary brazzein variant: Arg at position 32 of minor-type brazzein substituted with Lys (DKCKKVYENYPVSKCQLANQCNYDCKLRKHAKSGECFYDEKRNLQCICDYCEY; Brazzein(R32K)) [Brazzein R32K] | – | – | 0.16 | 3,000 μg/100 ml | 334
9 | H30D: primary brazzein variant: His at position 30 of minor-type brazzein substituted with Asp (DKCKKVYENYPVSKCQLANQCNYDCKLRKDARSGECFYDEKRNLQCICDYCEY; Brazzein(H30D)) [Brazzein H30D] | – | – | 0.16 | 3,000 μg/100 ml | 334
10 | E40H: primary brazzein variant: Glu at position 40 of minor-type brazzein substituted with His (DKCKKVYENYPVSKCQLANQCNYDCKLRKHARSGECFYDHKRNLQCICDYCEY; Brazzein(E40H)) [Brazzein E40H] | – | – | 2 | 250 μg/100 ml | 4,000
11 | E35R: primary brazzein variant: Glu at position 35 of minor-type brazzein substituted with Arg (DKCKKVYENYPVSKCQLANQCNYDCKLRKHARSGRCFYDEKRNLQCICDYCEY; Brazzein(E35R)) [Brazzein E35R] | – | – | 0.08 | 6,000 μg/100 ml | 167
12 | K5D: primary brazzein variant: Lys at position 5 of minor-type brazzein substituted with Asp (DKCKDVYENYPVSKCQLANQCNYDCKLRKHARSGECFYDEKRNLQCICDYCEY; Brazzein(K5D)) [Brazzein K5D] | – | – | 0.08 | 6,000 μg/100 ml | 167
13 | R32H: primary brazzein variant: Arg at position 32 of minor-type brazzein substituted with His (DKCKKVYENYPVSKCQLANQCNYDCKLRKHAHSGECFYDEKRNLQCICDYCEY; Brazzein(R32H)) [Brazzein R32H] | – | – | 0.16 | 3,000 μg/100 ml | 334
14 | R32D: primary brazzein variant: Arg at position 32 of minor-type brazzein substituted with Asp (DKCKKVYENYPVSKCQLANQCNYDCKLRKHADSGECFYDEKRNLQCICDYCEY; Brazzein(R32D)) [Brazzein R32D] | – | – | 0.05 | 10,000 μg/100 ml | 100
15 | E35A: primary brazzein variant: Glu at position 35 of minor-type brazzein substituted with Ala (DKCKKVYENYPVSKCQLANQCNYDCKLRKHARSGACFYDEKRNLQCICDYCEY; Brazzein(E35A)) [Brazzein E35A] | – | – | 0.05 | 10,000 μg/100 ml | 100
16 | R42K: primary brazzein variant: Arg at position 42 of minor-type brazzein substituted with Lys (DKCKKVYENYPVSKCQLANQCNYDCKLRKHARSGECFYDEKKNLQCICDYCEY; Brazzein(R42K)) [Brazzein R42K] | – | – | 0.16 | 3,000 μg/100 ml | 334
17 | K5E: primary brazzein variant: Lys at position 5 of minor-type brazzein substituted with Glu (DKCKEVYENYPVSKCQLANQCNYDCKLRKHARSGECFYDEKRNLQCICDYCEY; Brazzein(K5E)) [Brazzein K5E] | – | – | 0.08 | 6,000 μg/100 ml | 167
18 | K5R: primary brazzein variant: Lys at position 5 of minor-type brazzein substituted with Arg (DKCKRVYENYPVSKCQLANQCNYDCKLRKHARSGECFYDEKRNLQCICDYCEY; Brazzein(K5R)) [Brazzein K5R] | – | – | 0.05 | 10,000 μg/100 ml | 100
